These results are taken from patent publication EP4273142A1 (Université de Bretagne Occidentale, priority 2022, dated 2023).

Data set [1] in a line: Pd(II) complexation equilibria by UV spectrophotometry and potentiometry. The conditions noted are these: for log KML: stability constant of the Pd(II) complex, 25°C in 1.0 M KCl.
The nature of data set [2]: Ligand protonation equilibria by potentiometric titration. It is filed as physicochemical. The conditions noted are these: 1.0 m kcl.
For data set [3] the following is noted: cited from earlier work.
A short description of data set [4]: EDTA challenge (transchelation) of 109Pd-labelled complexes, radio-HPLC. Conditions: pbs, 1000 eq edta, pH 7.
A short description of data set [5]: Acid-mediated dissociation (cold inertness) followed by 1H NMR. In kind it is physicochemical. The conditions noted are these: Pd(II) complex, 5 M DCl (HCl 5M), 90°C, up to five months, 0.05M.
For data set [6] the following is noted: pbs, 1000 eq edta, 24 h, pH 7.
Setting [7] is: Table 5, complexation constant in log units, […], 1.0 M (K,H)Cl.
Where [8] appears, read: Table 6, overall formation constant in log units, […], 1.0 M (K,H)Cl.
The mark [9] stands for this setting: Table 5, stepwise protonation constant in log units, read-out: H2L + H^+ ⇄H3L.
Where [10] appears, read: Table 5, stepwise protonation constant in log units, read-out: H3L + H^+ ⇄H4L.
Setting [11] is: Table 5, stepwise protonation constant in log units, read-out: HL + H^+ ⇄H2L.
Where [12] appears, read: Table 5, stepwise protonation constant in log units, read-out: L + H^+ ⇄HL.
Where [13] appears, read: Table 6, overall constant in log units, read-out: L + H^+ ⇄HL.

Entries after “also recorded” stand apart in the source; their conditions may differ. Where two headings read alike, the source gives them in different places. Marks after values point to notes of the source that are not given here.

`c1ccc(CN2CCCNCCNCCCNCC2)cc1` [TE1Bn, reference compound]: the “Pd^2+ + L ⇄PdL” value in data set [1] (setting [7]) and in data set [1] (setting [8]) was over 43 throughout. Further, the “log KML” value in data set [1] is on record as over 43. For the same compound, the pKa in data set [2] (setting [9]) was determined as 2.21; in data set [2] (setting [10]) it was 2.89; in data set [2] (setting [11]), 9.39; in data set [2] (setting [12]), 11.3; in data set [2] (setting [13]), 11.3.
For `O=C(O)c1cccc(CN2CCCNCCNCCCNCC2)n1` [TE1PA, 6-((1,4,8,11-tetraazacyclotetradecan-1-yl)methyl)picolinate], the “PdHL + H^+ ⇄PdH2L” value in data set [1] (Table 5, stepwise protonation constant of the Pd(II) complex in log units, […], 1.0 M KCl) is on record as 1.8(1). Moreover, the pKa in data set [2] (setting [9]) worked out at 3.05; in data set [2] (setting [10]) it was 2.28; in data set [2] (Table 5, stepwise protonation constant in log units, read-out: H4L + H^+ ⇄H5L) it was 1.69; in data set [2] (setting [11]), 10.1; in data set [2] (setting [12]), 11.1; in data set [2] (setting [13]), 11.1.
On to `c1ccc(CN2CCCNCCNCCCNCC2)nc1` [TE1Py], for which the “Pd^2+ + L ⇄PdL” value in data set [1] (setting [7]) and in data set [1] (setting [8]) was 42.6(1) each time. Moreover, the “Pd^2+ + L + H^+ ⇄PdHL” value in data set [1] (Table 6, overall formation constant in log units, determined by UV spectrophotometry, pH 0-1.5, […], 1.0 M (K,H)Cl) is 44.2(1) ^b. The “log KML” value in data set [1] was 42.6. The pKa in data set [2] (setting [9]) came out at 2.65; in data set [2] (setting [10]), 2.83; in data set [2] (setting [11]) it was 10.4; in data set [2] (setting [12]), 11.5; in data set [2] (setting [13]) it was 11.5.
In the case of `C1CNCCNCCCNCCNC1.[Cl-].[Cl-].[Pd+2]` [[Pd(cyclam)]^2+, Palladium(II) 1,4,8,11-tetraazacyclotetradecane dichloride, reference compound], the “log KML” value in data set [3] (Pd(II) cyclam complex, 25°C in 0.1 M NaClO4, Harrington et al. 2005, value estimated) was “log KML = 56,9”. This compound had a degraded at 24 h in data set [4] of 13%. Also, the Dissociation entry in data set [5] is “neither [Pd(cyclam)]^2+ nor [Pd(TE1PA)]^2+ present any significant dissociation; also recorded: HCl 5M, 90°C: Inert”.
As for `OCCN1CCCN(CCO)CCN(CCO)CCCN(CCO)CC1` [tetra(2-hydroxyethyl) cyclam], in data set [3] (Pd(II) complex, Hay et al. 1987), the “log KML” value was 18.32.
“Palladium (II) 6-methylpicolinate-1,4,8,11-tetraazacyclotetradecane tetrachloropalladate [[Pd(TE1PA)]^2+]”: in data set [6], the demetallation was 9% demetallation. Further, in data set [1], the “log KML” value is listed as “log KML = 38.4”. The Dissociation entry in data set [5] is “neither [Pd(cyclam)]^2+ nor [Pd(TE1PA)]^2+ present any significant dissociation; also recorded: HCl, 5M, 90°C: Inert”.
